{"source": "patent US8236490B2", "about": "“Screening method for compounds that reduce ER stress” (EM Biotecnologia S.A., priority 2007, dated 2012)", "tested_on": "DGI-TAUP301L cells (ER stress induced by mutant TAU-P301L protein)", "assay": "ER stress reporter (KAR2 UPRE-GFP) screening assay in DGI-TAUP301L yeast cells; fluorescence normalised to cell density", "type": "cell-based, Saccharomyces cerevisiae", "settings": "2% galactose, 2 days at 30° C.", "experimental": "Screening was conducted with a DGI-TAUP301L yeast cell expressing the mutant TAU-P301L protein under the control of GAL1 promoter and containing the ER stress sensor reporter plasmid with GFP as reporter, described above in the “Construction of the ER sensor reporter plasmid” section. […] The resulting fluorescent signal was normalised to cell density and the normalised fluorescence was used as a direct measure of ER stress level in the cells.\nA commercial library containing 50 080 small molecules was screened along with 5 dipeptide molecules from an academic collaboration and 208 extracts from a proprietary natural extract collection. Active compounds, with the potential to modulate the deleterious effects of TAU-P301L expression, were identified by their ability to decrease normalised fluorescence, without influencing growth. Growth was determined by measuring optical density (OD) of a culture.\nDGI-TAUP301L cells were dispensed into 96-well plates on minimum medium containing 2% galactose to fully express the mutant protein, together with 10 μM candidate compound. All liquid handing steps were performed using a Janus Automated Workstation (Perkin Elmer). Plates were incubated for 2 days at 30° C. under shaking in a Liconic STX40 Automated Incubator. Growth and fluorescence were monitored with a Victor 3V microplate reader (PE). […]\n(§1) DGI-TAUP301L cells were pre-grown on a mixture of 2% galactose until reaching early exponential phase (OD=1-2). […] Growth and fluorescence were monitored for 2 days at 30° C. under agitation. […]\nas §1, §1, §1", "data": [{"smiles": "C[S+](C)[O-]", "note": "[DMSO]", "values": [{"measurement": "reduction of ER stress", "setting": "2% DMSO", "value": 35, "unit": "%"}]}, {"smiles": "C[N+](C)(C)CCO", "note": "[Choline, choline]", "values": [{"measurement": "reduction of ER stress", "setting": "0.4 M choline", "value": 35, "unit": "%"}]}, {"smiles": "O=C(/C=C/c1ccccc1)NC(NC(=S)Nc1cccc2cccnc12)C(Cl)(Cl)Cl", "note": "(stereo not drawn) [salubrinal]", "values": [{"measurement": "reduction of ER stress signal", "setting": "100 μM salubrinal", "value": "~50", "unit": "%"}]}]}
